Reference: US9814704B2, “Substituted pyrrolo[2,3-b]pyridines as MLK inhibitors” (The University of Rochester, priority 2008, dated 2017)

The molecules below were run against MLK3 (Homo sapiens (Human), UniProt Q16584) (assay: Radiometric Filter Plate MLK3 Assay). Conditions: 200 ng (130 nM) MLK3, 1 μM inactive MKK7b, 2 μM cold ATP (Km), 33P ATP, twenty minute incubation; read-out: MK3 IC50.
MLK3, sequence (Q16584 whole entry): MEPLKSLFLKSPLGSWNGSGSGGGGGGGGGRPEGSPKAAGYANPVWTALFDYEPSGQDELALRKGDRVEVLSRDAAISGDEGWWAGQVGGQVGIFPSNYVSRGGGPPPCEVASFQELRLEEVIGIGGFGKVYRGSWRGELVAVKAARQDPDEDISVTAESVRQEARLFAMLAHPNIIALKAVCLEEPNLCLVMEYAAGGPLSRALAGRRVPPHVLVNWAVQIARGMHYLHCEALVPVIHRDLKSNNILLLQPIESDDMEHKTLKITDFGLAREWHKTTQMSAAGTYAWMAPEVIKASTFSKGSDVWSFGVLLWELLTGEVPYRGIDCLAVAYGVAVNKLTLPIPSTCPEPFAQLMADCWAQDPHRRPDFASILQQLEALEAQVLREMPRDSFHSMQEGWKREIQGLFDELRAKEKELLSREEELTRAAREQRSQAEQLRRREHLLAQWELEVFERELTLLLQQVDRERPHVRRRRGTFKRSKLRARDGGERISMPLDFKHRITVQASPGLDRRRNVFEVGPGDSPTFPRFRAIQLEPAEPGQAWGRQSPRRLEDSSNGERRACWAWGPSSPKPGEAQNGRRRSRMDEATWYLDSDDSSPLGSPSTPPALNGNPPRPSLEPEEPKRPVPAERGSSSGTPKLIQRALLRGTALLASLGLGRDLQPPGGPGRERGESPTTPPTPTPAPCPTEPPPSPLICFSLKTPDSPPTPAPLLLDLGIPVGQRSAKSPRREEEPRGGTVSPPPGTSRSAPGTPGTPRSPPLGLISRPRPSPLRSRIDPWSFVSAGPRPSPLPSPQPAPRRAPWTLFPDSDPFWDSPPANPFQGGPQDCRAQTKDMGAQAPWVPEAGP
Type: biochemical
Description: Radiometric Filter Plate MLK3 Assay
After a twenty minute incubation, the reactions were washed through filter plates and read on a scintillation counter. Results are shown in Table 4 below, in which +++ indicates ≦0.1 μM, ++ indicates >0.1 μM and ≦1 μM, and + indicates >1 μM.
With `CC(=O)Nc1ccc(-c2cnc3[nH]cc(-c4ccc5[nH]ccc5c4)c3c2)cc1` [Example 3, N-(4-(3-(1H-indol-5-yl)-1H-pyrrolo[2,3-b]pyridin-5-yl)phenyl)acetamide] the IC50 was less than 0.1 µM. `COc1cc(-c2cnc3[nH]cc(-c4ccc5[nH]ccc5c4)c3c2)ccc1N` [Example 5, 4-(3-(1H-indol-5-yl)-1H-pyrrolo[2,3-b]pyridin-5-yl)-2-methoxyaniline] was tested, and the IC50 was less than 0.1 µM. `CN1CCN(c2cc(-c3cnc4[nH]cc(-c5ccc6[nH]ccc6c5)c4c3)ccn2)CC1` [Example 7, 3-(1H-indol-5-yl)-5-(2-(4-methylpiperazin-1-yl)pyridin-4-yl)-1H-pyrrolo[2,3-b]pyridine] was tested, and the IC50 was less than 0.1 µM. `Nc1ccc(-c2cnc3[nH]cc(-c4ccc5[nH]ccc5c4)c3c2)cc1` [Example 8, 4-(3-(1H-indol-5-yl)-1H-pyrrolo[2,3-b]pyridin-5-yl)aniline] gave an IC50 of less than 0.1 µM. Work on `CS(=O)(=O)Nc1ccc(-c2cnc3[nH]cc(-c4ccc5[nH]ccc5c4)c3c2)cc1` [Example 11, N-(4-(3-(1H-indol-5-yl)-1H-pyrrolo[2,3-b]pyridin-5-yl)phenyl)methanesulfonamide] yielded an IC50 of less than 0.1 µM. Work on `COc1cc(-c2cnc3[nH]cc(-c4ccc(N)cc4)c3c2)cc(OC)c1OC` [Example 15, 4-(5-(3,4,5-trimethoxyphenyl)-1H-pyrrolo[2,3-b]pyridin-3-yl)aniline] yielded an IC50 of less than 0.1 µM. Molecule `COc1cc(-c2cnc3[nH]cc(-c4ccc(NC(C)=O)cc4)c3c2)cc(OC)c1OC` [Example 16, N-(4-(5-(3,4,5-trimethoxyphenyl)-1H-pyrrolo[2,3-b]pyridin-3-yl)phenyl)acetamide] has an IC50 of less than 0.1 µM. In the case of `COc1cc(-c2cnc3[nH]cc(-c4ccc(N(C)C)nc4)c3c2)cc(OC)c1OC` [Example 19, N,N-dimethyl-5-(5-(3,4,5-trimethoxyphenyl)-1H-pyrrolo[2,3-b]pyridin-3-yl)pyridin-2-amine], the IC50 is reported as less than 0.1 µM. `Nc1ncc(-c2cnc3[nH]cc(-c4cnc(N)nc4)c3c2)cn1` [Example 20, 5,5′-(1H-pyrrolo[2,3-b]pyridine-3,5-diyl)dipyrimidin-2-amine] was tested, and the IC50 was greater than 1 µM. `CN(C)c1ccc(-c2cnc3[nH]cc(-c4ccc(F)c(Cl)c4)c3c2)cn1` [Example 22, 5-(3-(3-chloro-4-fluorophenyl)-1H-pyrrolo[2,3-b]pyridin-5-yl)-N,N-dimethylpyridin-2-amine] showed an IC50 greater than 1 µM. Molecule `COc1cc(-c2cnc3[nH]cc(-c4ccc5c(ccn5C)c4)c3c2)cc(OC)c1OC` [Example 24, 3-(1-methyl-1H-indol-5-yl)-5-(3,4,5-trimethoxyphenyl)-1H-pyrrolo[2,3-b]pyridine] has an IC50 of less than 0.1 µM. `COc1cc(-c2cnc3[nH]cc(-c4ccc(C(N)=O)cc4)c3c2)cc(OC)c1OC` [Example 25, 4-(5-(3,4,5-trimethoxyphenyl)-1H-pyrrolo[2,3-b]pyridin-3-yl)benzamide] showed an IC50 of less than 0.1 µM. `COc1ccc(-c2cnc3[nH]cc(-c4ccc(C(N)=O)cc4)c3c2)cc1OC` [Example 26, 4-(5-(3,4-dimethoxyphenyl)-1H-pyrrolo[2,3-b]pyridin-3-yl)benzamide] showed an IC50 of less than 0.1 µM. `Nc1ccc(-c2cnc3[nH]cc(-c4ccc(F)c(Cl)c4)c3c2)cn1` [Example 29, 5-(3-(3-chloro-4-fluorophenyl)-1H-pyrrolo[2,3-b]pyridin-5-yl)pyridin-2-amine] gave an IC50 greater than 1 µM. `CN(C)Cc1ccc(-c2cnc3[nH]cc(-c4ccc5[nH]ccc5c4)c3c2)cc1` [Example 33, 1-(4-(3-(1H-indol-5-yl)-1H-pyrrolo[2,3-b]pyridin-5-yl)phenyl)-N,N-dimethylmethanamine] showed an IC50 of less than 0.1 µM. Molecule `COc1cc(-c2cnc3[nH]cc(-c4ccc5[nH]ccc5c4)c3c2)ccc1OCCN(C)C` [Example 35, 2-(4-(3-(1H-indol-5-yl)-1H-pyrrolo[2,3-b]pyridin-5-yl)-2-methoxyphenoxy)-N,N-dimethylethanamine] has an IC50 greater than 1 µM. `COc1ccc(-c2cnc3[nH]cc(-c4ccc5[nH]ccc5c4)c3n2)cc1OC` [Example 37, 2-(3,4-dimethoxyphenyl)-7-(1H-indol-5-yl)-5H-pyrrolo[3,2-b]pyrazine] gave an IC50 of less than 0.1 µM. With `COc1cc(-c2cnc3[nH]cc(-c4ccc5[nH]ccc5c4)c3n2)ccc1N` [Example 38, 4-(7-(1H-indol-5-yl)-5H-pyrrolo[3,2-b]pyrazin-2-yl)-2-methoxyaniline] the IC50 was less than 0.1 µM. `COc1cc(-c2cnc3[nH]cc(-c4ccc5[nH]ccc5c4)c3n2)ccc1OCCN1CCOCC1` [Example 39, 4-(2-(4-(7-(1H-indol-5-yl)-5H-pyrrolo[3,2-b]pyrazin-2-yl)-2-methoxyphenoxy)ethyl)morpholine] gave an IC50 of less than 0.1 µM. Work on `COc1cc(-c2cnc3[nH]c(=O)n(-c4ccc5[nH]ccc5c4)c3n2)cc(OC)c1OC` [Example 40, 1-(1H-indol-5-yl)-6-(3,4,5-trimethoxyphenyl)-1H-imidazo[4,5-b]pyrazin-2(3H)-one] yielded an IC50 of less than 0.1 µM. Molecule `Cn1ccc2cc(-n3c(=O)[nH]c4ncc(-c5ccc(O)cc5)nc43)ccc21` [Example 42, 6-(4-hydroxyphenyl)-1-(1-methyl-1H-indol-5-yl)-1H-imidazo[4,5-b]pyrazin-2(3H)-one] has an IC50 greater than 1 µM. In the case of `Cc1cc(C)cc(-c2cnc3[nH]c(=O)n(-c4ccc5c(ccn5C)c4)c3n2)c1` [Example 43, 6-(3,5-dimethylphenyl)-1-(1-methyl-1H-indol-5-yl)-1H-imidazo[4,5-b]pyrazin-2(3H)-one], the IC50 is reported as greater than 1 µM. `O=c1[nH]c2ncc(-c3ccncc3)nc2n1-c1ccc2[nH]ccc2c1` [Example 44, 1-(1H-indol-5-yl)-6-(pyridin-4-yl)-1H-imidazo[4,5-b]pyrazin-2(3H)-one] showed an IC50 greater than 1 µM. `Cc1cc(C)cc(-c2cnc3[nH]c(=O)n(-c4ccc5[nH]ccc5c4)c3n2)c1` [Example 46, 6-(3,5-dimethylphenyl)-1-(1H-indol-5-yl)-1H-imidazo[4,5-b]pyrazin-2(3H)-one] was tested, and the IC50 was greater than 1 µM. `O=c1[nH]c2ncc(-c3cc(Cl)cc(Cl)c3)nc2n1-c1ccc2[nH]ccc2c1` [Example 48, 6-(3,5-dichlorophenyl)-1-(1H-indol-5-yl)-1H-imidazo[4,5-b]pyrazin-2(3H)-one] was tested, and the IC50 was greater than 1 µM.

Same assay, conditions: read-out: MK3 IC50
Molecule `COc1cc(-c2cnc3c(c2)C(=Cc2cccnc2)C(=O)N3)cc(OC)c1OC` (racemic) [Example 128, 3-pyridin-3-ylmethylene-5-(3,4,5-trimethoxy-phenyl)-1,3-dihydro-pyrrolo[2,3-b]pyridin-2-one] has an IC50 of 0.1 to 1 µM. Molecule `COc1ccc(-c2cnc3[nH]cc(-c4ccc5[nH]ccc5c4)c3c2)cc1OC` [Example 2, 5-(3,4-dimethoxyphenyl)-3-(1H-indol-5-yl)-1H-pyrrolo[2,3-b]pyridine] has an IC50 of 0.1 to 1 µM. In the case of `COc1ccc(-c2cnc3[nH]cc(-c4ccc5[nH]ccc5c4)c3c2)cn1` [Example 6, 3-(1H-indol-5-yl)-5-(6-methoxypyridin-3-yl)-1H-pyrrolo[2,3-b]pyridine], the IC50 is reported as 0.1 to 1 µM. Work on `c1cc2cc(-c3c[nH]c4ncc(-c5ccc(N6CCNCC6)nc5)cc34)ccc2[nH]1` [Example 10, 3-(1H-indol-5-yl)-5-(6-(piperazin-1-yl)pyridin-3-yl)-1H-pyrrolo[2,3-b]pyridine] yielded an IC50 of 0.1 to 1 µM. Molecule `c1cc2cc(-c3cnc4[nH]cc(-c5ccc6[nH]ccc6c5)c4c3)ccc2[nH]1` [Example 12, 3,5-di(1H-indol-5-yl)-1H-pyrrolo[2,3-b]pyridine] has an IC50 of 0.1 to 1 µM. In the case of `CN(C)c1ccc(-c2cnc3[nH]cc(-c4ccc5[nH]ccc5c4)c3c2)cn1` [Example 13, 5-(3-(1H-indol-5-yl)-1H-pyrrolo[2,3-b]pyridin-5-yl)-N,N-dimethylpyridin-2-amine], the IC50 is reported as 0.1 to 1 µM. `c1ccc(-c2cnc3[nH]cc(-c4ccc5[nH]ccc5c4)c3c2)cc1` [Example 14, 3-(1H-indol-5-yl)-5-phenyl-1H-pyrrolo[2,3-b]pyridine] showed an IC50 of 0.1 to 1 µM. Molecule `CN(C)c1ccc(-c2cnc3[nH]cc(-c4ccc(N(C)C)nc4)c3c2)cn1` [Example 21, 5,5′-(1H-pyrrolo[2,3-b]pyridine-3,5-diyl)bis(N,N-dimethylpyridin-2-amine)] has an IC50 of 0.1 to 1 µM. With `Nc1ccc(-c2c[nH]c3ncc(-c4ccc(N)nc4)cc23)cc1` [Example 23, 5-(3-(4-aminophenyl)-1H-pyrrolo[2,3-b]pyridin-5-yl)pyridin-2-amine] the IC50 was 0.1 to 1 µM. `COc1cc(-c2cnc3[nH]cc(-c4ccc(C(N)=O)cc4)c3c2)ccc1N` [Example 27, 4-(5-(4-amino-3-methoxyphenyl)-1H-pyrrolo[2,3-b]pyridin-3-yl)benzamide] showed an IC50 of 0.1 to 1 µM. For `NC(=O)c1ccc(-c2c[nH]c3ncc(-c4ccc(N)nc4)cc23)cc1` [Example 28, 4-(5-(6-aminopyridin-3-yl)-1H-pyrrolo[2,3-b]pyridin-3-yl)benzamide], the IC50 was 0.1 to 1 µM. `CNc1ccc(-c2cnc3[nH]cc(-c4ccc5[nH]ccc5c4)c3c2)cn1` [Example 30, 5-(3-(1H-indol-5-yl)-1H-pyrrolo[2,3-b]pyridin-5-yl)-N-methylpyridin-2-amine] gave an IC50 of less than 0.1 µM. For `COc1cc(-c2cnc3[nH]cc(-c4ccc5[nH]ccc5c4)c3c2)ccc1OCCN1CCNCC1` [Example 34, 3-(1H-indol-5-yl)-5-(3-methoxy-4-(2-(piperazin-1-yl)ethoxy)phenyl)-1H-pyrrolo[2,3-b]pyridine], the IC50 was less than 0.1 µM. For `COc1cc(-c2cnc3[nH]cc(-c4ccc5[nH]ccc5c4)c3n2)cc(OC)c1OC` [Example 36, 7-(1H-indol-5-yl)-2-(3,4,5-trimethoxyphenyl)-5H-pyrrolo[3,2-b]pyrazine], the IC50 was less than 0.1 µM. `COc1cc(-c2cnc3[nH]c(=O)n(-c4ccc5c(ccn5C)c4)c3n2)cc(OC)c1OC` [Example 41, 1-(1-methyl-1H-indol-5-yl)-6-(3,4,5-trimethoxyphenyl)-1H-imidazo[4,5-b]pyrazin-2(3H)-one] was tested, and the IC50 was 0.1 to 1 µM. For `O=c1[nH]c2ncc(-c3ccc(O)cc3)nc2n1-c1ccc2[nH]ccc2c1` [Example 45, 6-(4-hydroxyphenyl)-1-(1H-indol-5-yl)-1H-imidazo[4,5-b]pyrazin-2(3H)-one], the IC50 was 0.1 to 1 µM. `COc1ccc(-c2cnc3[nH]c(=O)n(-c4ccc5[nH]ccc5c4)c3n2)cc1OC` [Example 47, 6-(3,4-dimethoxyphenyl)-1-(1H-indol-5-yl)-1H-imidazo[4,5-b]pyrazin-2(3H)-one] gave an IC50 of 0.1 to 1 µM.
